The target of one test is T1, delF508-CFTR-HRP (Homo sapiens, UniProt P13569, DEL508-508).
T1 construct: expressed in transfected cells
Put plainly: Measurement of delF508-CFTR-HRP surface expression in CFBE41o- cells (HRP luminescence).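 On DelF508-CFTR-HRP Amax %: percent efficacy relative to a reference CFTR corrector compound.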 In kind it is cell-based. Particulars: for Emax: CFBE41o-, read-out: DelF508-CFTR-HRP Amax %; for EC50: mean of at least two replicates. The essentials: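 Stably transfected CFBE41o- cells carrying HRP in the fourth extracellular loop of delF508-CFTR, induced with 500 ng/mL doxycycline for 48 h, then compound-treated 24 h at 37° C (10-point, 3-fold, top 10 μM). Surface HRP detected by luminescent substrate; EC50 from logistic fit, triplicates, normalized to lowest-concentration median.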

A further test addresses T2, delF508-CFTR (Homo sapiens, UniProt P13569, DEL508-508).
T2 construct: functional activity of the CFTR channel (Chloride ion transport) in patient derived primary human bronchial epithelial cells; host or cells: patient-derived primary human bronchial epithelial cells (HBECs), delF508-CFTR
Put plainly: delF508-CFTR functional activity in primary human bronchial epithelial cells (HBECs), Multi-Transepithelial Clamp Circuit (MTECC-24) assay, equivalent short circuit current. In kind it is cell-based. The conditions noted are these: primary CF HBECs; for MTECC24 CFHBEC-Amax %: relative to reference combination 2 μM 3-(6-(1-(2,2-difluorobenzo[d][1,3]dioxol-5-yl)cyclopropane-1-carboxamido)-3-methylpyridin-2-yl)benzoic acid (24 h) + 0.5 μM N-(2,4-di-tert-butyl-5-hydroxyphenyl)-4-oxo-1,4-dihydroquinoline-3-carboxamide; for EC50: test compound added 24 h before assay, potentiator (S)-3-amino-6-methoxy-N-(3,3,3-trifluoro-2-hydroxy-2-methylpropyl)-5-(trifluoromethyl)picolinamide present at assay, mean of at least two replicates, read-out: MTECC24 CFHBEC-EC50. The essentials: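 Patient-derived delF508 HBECs, grown at air-liquid interface about two weeks, were corrected with compound basolaterally for 24 h. Compound was then re-added apically and basolaterally in HEPES pH7.4 assay medium, with sequential modulators including forskolin and the picolinamide potentiator. Ieq was recorded, normalised to 0.1% DMSO wells, and EC50 fitted from 10-point curves.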

T1 sequence (P13569 with tags, fused parts or gaps DEL508-508): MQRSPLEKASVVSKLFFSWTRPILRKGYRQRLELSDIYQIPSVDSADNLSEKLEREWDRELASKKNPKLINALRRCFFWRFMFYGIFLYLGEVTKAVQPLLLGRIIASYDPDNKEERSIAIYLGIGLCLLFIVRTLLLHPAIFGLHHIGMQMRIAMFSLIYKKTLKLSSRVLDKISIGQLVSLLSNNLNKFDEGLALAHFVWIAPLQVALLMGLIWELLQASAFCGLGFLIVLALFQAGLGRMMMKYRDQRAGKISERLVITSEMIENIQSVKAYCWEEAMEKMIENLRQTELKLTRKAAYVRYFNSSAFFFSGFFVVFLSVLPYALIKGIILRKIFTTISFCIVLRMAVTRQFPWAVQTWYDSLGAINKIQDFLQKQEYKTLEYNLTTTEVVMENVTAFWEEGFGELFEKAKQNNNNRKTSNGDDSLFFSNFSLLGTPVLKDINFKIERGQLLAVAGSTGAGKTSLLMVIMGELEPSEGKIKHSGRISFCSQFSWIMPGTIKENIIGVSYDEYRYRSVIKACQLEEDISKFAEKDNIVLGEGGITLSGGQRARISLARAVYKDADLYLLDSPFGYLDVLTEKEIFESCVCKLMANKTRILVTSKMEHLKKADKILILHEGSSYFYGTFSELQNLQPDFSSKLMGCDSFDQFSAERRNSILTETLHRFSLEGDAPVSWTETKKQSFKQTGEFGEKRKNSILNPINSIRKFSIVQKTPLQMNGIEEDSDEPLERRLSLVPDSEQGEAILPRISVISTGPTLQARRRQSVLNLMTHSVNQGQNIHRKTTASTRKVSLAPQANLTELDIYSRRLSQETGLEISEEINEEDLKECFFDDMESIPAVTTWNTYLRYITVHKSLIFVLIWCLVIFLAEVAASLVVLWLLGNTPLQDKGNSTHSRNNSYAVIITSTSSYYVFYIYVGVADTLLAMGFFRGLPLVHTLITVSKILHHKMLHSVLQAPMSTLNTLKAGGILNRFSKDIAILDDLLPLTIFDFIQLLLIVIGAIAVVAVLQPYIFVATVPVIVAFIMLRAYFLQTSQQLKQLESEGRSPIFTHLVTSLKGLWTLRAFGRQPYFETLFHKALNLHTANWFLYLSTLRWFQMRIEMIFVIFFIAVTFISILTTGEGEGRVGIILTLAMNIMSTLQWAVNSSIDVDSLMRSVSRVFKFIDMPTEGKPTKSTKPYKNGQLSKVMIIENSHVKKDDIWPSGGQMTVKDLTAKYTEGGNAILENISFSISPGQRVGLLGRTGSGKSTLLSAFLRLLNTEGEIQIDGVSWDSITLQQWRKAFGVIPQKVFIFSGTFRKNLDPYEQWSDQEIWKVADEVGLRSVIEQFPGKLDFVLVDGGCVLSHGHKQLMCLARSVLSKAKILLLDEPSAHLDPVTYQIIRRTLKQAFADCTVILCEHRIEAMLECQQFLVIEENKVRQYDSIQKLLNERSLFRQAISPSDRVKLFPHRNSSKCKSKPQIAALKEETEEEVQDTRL
T2 sequence (P13569 with tags, fused parts or gaps DEL508-508): as above

As for `Cc1ccc(C2CC=CCC2)c(OC2(C(=O)NS(=O)(=O)c3cccc(N4CC(C)(O)C4)n3)CC2)c1` (centres unmarked) [Example 4-22, N-((6-(3-hydroxy-3-methylazetidin-1-yl)pyridin-2-yl)sulfonyl)-1-((4-methyl-1′,2′,3′,6′-tetrahydro-[1,1′-biphenyl]-2-yl)oxy)cyclopropanecarboxamide], on delF508-CFTR-HRP, the Emax was determined as 453% and the EC50 (as a rule, the midpoint of the concentration-response curve) was 3.67 µM. Moreover, at delF508-CFTR, the “MTECC24 CFHBEC-Amax %” value is given as 62% and the EC50 was found to be 0.012 µM.

In the case of `Cc1ccc(-c2cccc(OC(F)(F)F)c2)c(OC2(C(=O)NS(=O)(=O)c3cccc(N4CC(C)(O)C4)n3)CC2)c1` [Example 5-8, N-((6-(3-Hydroxy-3-methylazetidin-1-yl)pyridin-2-yl)sulfonyl)-1-((4-methyl-3′-(trifluoromethoxy)-[1,1′-biphenyl]-2-yl)oxy)cyclopropane-1-carboxamide], on delF508-CFTR-HRP, the Emax came out at 371% and the EC50 was 2.48 µM. In addition, at delF508-CFTR, the “MTECC24 CFHBEC-Amax %” value turned out to be 57% and the EC50 came to 0.006 µM.

For `Cc1ccc(C2CCCCC2)c(OC2(C(=O)NS(=O)(=O)c3cccc(N4C[C@@H]5C[C@@H]5[C@H](N)C4)n3)CC2)c1` (relative stereo) [Example 2-44, N-((6-(5-cis-amino-3-azabicyclo[4.1.0]heptan-3-yl)pyridin-2-yl)sulfonyl)-1-(2-cyclohexyl-5-methylphenoxy)cyclopropane-1-carboxamide], at delF508-CFTR-HRP, the Emax stood at 120% and the EC50 was found to be 3.98 µM. At delF508-CFTR, the “MTECC24 CFHBEC-Amax %” value is given as 66% and the EC50 is 0.256 µM.

Consider `Cc1ccc(C2CCC(F)(F)CC2)c(OC2(C(=O)NS(=O)(=O)c3cccc(N4CC(C)(NC(=O)OC(C)(C)C)C4)n3)CC2)c1` [Example 3-6, Tert-butyl (1-(6-(N-(1-(2-(4,4-difluorocyclohexyl)-5-methylphenoxy)cyclopropane-1-carbonyl)sulfamoyl)pyridin-2-yl)-3-methylazetidin-3-yl)carbamate], for which, at delF508-CFTR-HRP, the Emax amounted to 380% and a half-maximal response (EC50) required 2.66 µM. For the same compound, on delF508-CFTR, the “MTECC24 CFHBEC-Amax %” value was 57% and the EC50 was determined as 0.057 µM.

As to `Cc1ccc(C2CC2)c(OC2(C(=O)NS(=O)(=O)c3cccc(NC[C@H](C)O)n3)CC2)c1` [Example 4-14, (S)-1-(2-Cyclopropyl-5-methylphenoxy)-N-((6-((2-hydroxypropyl)amino)pyridin-2-yl)sulfonyl)cyclopropane-1-carboxamide], at delF508-CFTR-HRP, the Emax amounted to 119% and the midpoint of the response, the EC50, lay at 3.65 µM. On delF508-CFTR, the “MTECC24 CFHBEC-Amax %” value is recorded as 57% and the EC50 is 0.109 µM.

Turning to `Cc1ccc([C@H]2CC[C@H](F)CC2)c(OC2(C(=O)NS(=O)(=O)c3cccc(N4CC(C)(O)C4)n3)CC2)c1` (single isomer, unassigned) [Example 4-1, 1-(2-(Trans-4-fluorocyclohexyl)-5-methylphenoxy)-N-((6-(3-hydroxy-3-methylazetidin-1-yl)pyridin-2-yl)sulfonyl)cyclopropane-1-carboxamide], on delF508-CFTR-HRP, the Emax came out at 297% and the midpoint of the response, the EC50, lay at 4.03 µM. Further, on delF508-CFTR, the “MTECC24 CFHBEC-Amax %” value amounted to 84% and the EC50 was 0.226 µM.

Turning to `Cc1ccc(C2CCCCC2)c(OC2(C(=O)NS(=O)(=O)c3cccc(N4CCC(N)CC4)n3)CC2)c1` [Example 2-41, N-((6-(4-Aminopiperidin-1-yl)pyridin-2-yl)sulfonyl)-1-(2-cyclohexyl-5-methylphenoxy)cyclopropanecarboxamide], at delF508-CFTR-HRP, the Emax came to 142% and the EC50 came out at 2.96 µM. In addition, at delF508-CFTR, the “MTECC24 CFHBEC-Amax %” value amounted to 54% and the concentration giving a half-maximal response (EC50) is 0.654 µM.

For `O=C(NS(=O)(=O)c1cccc(N2CC[C@H](O)C2)n1)C1(Oc2cc(Cl)ccc2N2CCC(C(F)(F)F)CC2)CC1` [Example 9-16, (S)-1-(5-Chloro-2-(4-(trifluoromethyl)piperidin-1-yl)phenoxy)-N-((6-(3-hydroxypyrrolidin-1-yl)pyridin-2-yl)sulfonyl)cyclopropanecarboxamide], at delF508-CFTR-HRP, the Emax turned out to be 317% and the EC50 is 2.2 µM. Moreover, at delF508-CFTR, the “MTECC24 CFHBEC-Amax %” value came out at 138.2% and the EC50 came out at 0.865 µM.

`C[C@@H]1CN(c2cccc(S(=O)(=O)NC(=O)C3(Oc4cc(Cl)ccc4C4CC5(CCC5)C4)CC3)n2)CCO1` [Example 7-13, (R)-1-(5-Chloro-2-(spiro[3.3]heptan-2-yl)phenoxy)-N-((6-(2-methylmorpholino)pyridin-2-yl)sulfonyl)cyclopropane-1-carboxamide]: on delF508-CFTR-HRP, the Emax was found to be 543% and it took 1.29 µM to reach a half-maximal effect (EC50). Moreover, at delF508-CFTR, the “MTECC24 CFHBEC-Amax %” value turned out to be 81.1% and the 50% effective concentration (EC50) stood at 0.213 µM.

On to `Cc1ccc(C2CCCC2)c(OC2(C(=O)NS(=O)(=O)c3cccc(NC[C@@H](C)O)n3)CC2)c1` [Example 4-6, (R)-1-(2-Cyclopentyl-5-methylphenoxy)-N-((6-((2-hydroxypropyl)amino)pyridin-2-yl)sulfonyl)cyclopropane-1-carboxamide], for which, on delF508-CFTR-HRP, the Emax was determined as 537% and a half-maximal effect (EC50) was put at 3.35 µM. For the same compound, at delF508-CFTR, the “MTECC24 CFHBEC-Amax %” value stood at 78% and the EC50 was found to be 0.012 µM.

For the compound `CC(C)Cc1ccc(Cl)cc1OC1(C(=O)NS(=O)(=O)c2cccc(NC[C@H](C)O)n2)CC1` [Example 4-11, (S)-1-(5-Chloro-2-isobutylphenoxy)-N-((6-((2-hydroxypropyl)amino)pyridin-2-yl)sulfonyl)cyclopropane-1-carboxamide], on delF508-CFTR-HRP, the Emax came out at 115% and the EC50 is 3.1 µM. For the same compound, on delF508-CFTR, the “MTECC24 CFHBEC-Amax %” value was 66% and the EC50 is 0.035 µM.

As to `Cc1ccc(-c2ccc(C(F)(F)F)cc2)c(OC2(C(=O)NS(=O)(=O)c3cccc(N4CC[C@H](O)C4)n3)CC2)c1` [Example 5-10, (S)—N-((6-(3-Hydroxypyrrolidin-1-yl)pyridin-2-yl)sulfonyl)-1-((4-methyl-4′-(trifluoromethyl)-[1,1′-biphenyl]-2-yl)oxy)cyclopropane-1-carboxamide], on delF508-CFTR-HRP, the Emax was 416% and a half-maximal effect (EC50) was put at 1.21 µM. At delF508-CFTR, the “MTECC24 CFHBEC-Amax %” value worked out at 114% and the EC50 stood at 0.026 µM.

As to `COC(=O)C1CCN(c2cccc(S(=O)(=O)NC(=O)C3(Oc4cc(C)ccc4C4CCCCC4)CC3)n2)CC1` [Example 2-4, Methyl 1-(6-(N-(1-(2-cyclohexyl-5-methylphenoxy)cyclopropane-1-carbonyl)sulfamoyl)pyridin-2-yl)piperidine-4-carboxylate], on delF508-CFTR-HRP, the Emax worked out at 808% and the EC50 was 1.29 µM. At delF508-CFTR, the “MTECC24 CFHBEC-Amax %” value amounted to 91% and the EC50 turned out to be 0.01 µM.

As to `O=C(NS(=O)(=O)c1cccc(N2CC[C@H](O)C2)n1)C1(Oc2cc(Cl)ccc2-c2cccc(C(F)(F)F)c2)CC1` [Example 5-2, (S)-1-((4-Chloro-3′-(trifluoromethyl)-[1,1′-biphenyl]-2-yl)oxy)-N-((6-(3-hydroxypyrrolidin-1-yl)pyridin-2-yl)sulfonyl)cyclopropane-1-carboxamide], on delF508-CFTR-HRP, the Emax was found to be 313% and the EC50 was 1.58 µM. Further, on delF508-CFTR, the “MTECC24 CFHBEC-Amax %” value was 62% and the 50% effective concentration (EC50) was determined as 0.099 µM.

(Values after patent US20220033407A1, “N-(pyridin-2-ylsulfonyl)cyclopropanecarboxamide Derivatives and their Use in the Treatment of Disease” (NOVARTIS AG, priority 2018, published 2022).)
